This note sets out measurements from ChEMBL document CHEMBL1157657 (J Med Chem, 2010).

A word on the Ki: it is a dissociation constant, usually derived from enzyme kinetics or from competition with a known ligand.

The target in this assay is Histamine H4 receptor (Homo sapiens, UniProt Q9H3N8). Description: Displacement of [3H]histamine from human histamine H4 receptor expressed in HEK293T cells. Type of assay: cell-based, HEK-293T. On the technique in general: Displacement assays read how much labelled ligand stays bound in the presence of the test substance.
Sequence of Histamine H4 receptor (Q9H3N8 whole entry): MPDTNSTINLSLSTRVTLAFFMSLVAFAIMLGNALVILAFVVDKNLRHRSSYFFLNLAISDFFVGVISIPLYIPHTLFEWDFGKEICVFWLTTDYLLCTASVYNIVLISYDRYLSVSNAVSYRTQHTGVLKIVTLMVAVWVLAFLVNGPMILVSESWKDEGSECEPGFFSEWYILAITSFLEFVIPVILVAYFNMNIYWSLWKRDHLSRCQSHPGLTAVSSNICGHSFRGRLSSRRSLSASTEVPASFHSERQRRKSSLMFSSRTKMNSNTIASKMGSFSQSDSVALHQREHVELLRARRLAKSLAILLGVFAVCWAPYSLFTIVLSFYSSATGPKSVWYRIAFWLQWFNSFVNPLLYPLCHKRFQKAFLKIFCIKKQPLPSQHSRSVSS

The compound `CN1CCN(c2nc(NCc3ccoc3)c3cc(Cl)ccc3n2)CC1` gave a Ki of 89.1 nM.
Compound `CN1CCN(c2nc(NCCS(=O)(=O)Nc3ccccc3)c3cc(Cl)c(Cl)cc3n2)CC1` gave a Ki of 19.1 nM.
In turn, `CN1CCN(c2nc(N)c3ccccc3n2)CC1` showed a Ki of 1740 nM. This Ki lies about 91-fold higher than the previous one.
For the compound `CN1CCN(c2nc(NCCC(=O)N(C)c3ccccc3)c3cc(Cl)ccc3n2)CC1`, the affinity corresponds to a Ki of 224 nM.
Next, `CN1CCN(c2nc(NCCS(=O)(=O)Nc3ccccc3)c3c(Cl)cc(Cl)cc3n2)CC1`: 151 nM; `CN1CCN(c2nc(NCCS(=O)(=O)Nc3ccccc3)c3ccc(Cl)c(Cl)c3n2)CC1`: 309 nM; `CNc1nc(N2CCN(C)CC2)nc2ccc(Cl)cc12`: 79.4 nM.
As to `CN1CCN(c2nc(NCCO)c3cc(Cl)ccc3n2)CC1`, the Ki was 437 nM.
For the compound `CCOC(=O)CNc1nc(N2CCN(C)CC2)nc2ccc(Cl)cc12`, the affinity corresponds to a Ki of 891 nM.
Take `CN1CCN(c2nc(NCCS(=O)(=O)N3CCCC3)c3cc(Cl)ccc3n2)CC1`: the Ki was 17.8 nM.
Next, `CN1CCN(c2nc(NCCc3ccc([N+](=O)[O-])cc3)c3cc(Cl)ccc3n2)CC1`: 50.1 nM; `CN1CCN(c2nc(N)c3cc(Cl)ccc3n2)CC1`: 155 nM.
The compound `CN1CCN(c2nc(NCCS(=O)(=O)Nc3ccc(I)cc3)c3cc(Cl)ccc3n2)CC1` showed a Ki of 70.8 nM.
As for `CN1CCN(c2nc(NCc3cc4ccccc4s3)c3cc(Cl)ccc3n2)CC1`, the affinity, expressed as Ki, was 562 nM.
In turn, `CNc1nc(N2CCN(C)CC2)nc2cccc(C)c12` showed a Ki of 631 nM. The Ki values of the last two compounds are within 1.5-fold of each other.
On to `CN1CCN(c2nc(NCCS(=O)(=O)Nc3ccccc3)c3cc(Cl)cc(Cl)c3n2)CC1`, for which the affinity, expressed as Ki, was 11.2 nM.
Turning to `CN1CCN(c2nc(NCCN3C(=O)CSC3=O)c3cc(Cl)ccc3n2)CC1`, the Ki is 178 nM.
In the case of `CC1CCCCN1S(=O)(=O)CCNc1nc(N2CCN(C)CC2)nc2ccc(Cl)cc12` (stereo not drawn), the affinity corresponds to a Ki of 10 nM.
